Results reported in patent publication US20080267948A1, “Croos-B Structure Binding Compounds” (priority 2005, published 2008).
Entries after “also recorded” stand apart in the source; their conditions may differ.

Columns and labels:
[1] = molecular target: T1, glycated haemoglobin (Hb-AGE) (Homo sapiens, UniProt P68871+P69905); test: ELISA binding of IgIV to immobilized Hb-AGE and inhibition studies; conditions: 15 μg/ml IgIV, concentration series of competitor
T1 construct: purchased Sigma-Aldrich H7379
T1 sequence (P69905 2-142 limits assumed): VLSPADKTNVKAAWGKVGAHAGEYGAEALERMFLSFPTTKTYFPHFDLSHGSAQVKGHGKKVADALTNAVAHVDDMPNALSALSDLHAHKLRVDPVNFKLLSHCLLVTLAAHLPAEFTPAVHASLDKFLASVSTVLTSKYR
T1 sequence (P68871 2-147 limits assumed): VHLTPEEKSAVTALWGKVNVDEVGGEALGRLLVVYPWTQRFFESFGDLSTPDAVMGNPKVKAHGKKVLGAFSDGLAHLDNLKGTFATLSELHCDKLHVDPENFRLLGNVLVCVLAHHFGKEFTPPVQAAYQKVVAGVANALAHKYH
Experimental: Binding of IgIV was determined using an enzyme linked immunosorbent assay (ELISA) set-up. For this purpose 50 μl/well of potential ligands at indicated concentrations or coat buffer only for control and background measurement purposes, were coated overnight at 4° C., with motion, in 50 mM NaHCO3 pH 9.6. Glycated albumin and Hb (BSA-AGE and Hb-AGE), control BSA and control Hb were coated at 5 μg/ml. The BSA and Hb controls were prepared freshly by dissolving lyophilized proteins at 1 mg/ml in PBS upon resuspending by pipetting, followed by a 30′ period at the roller bank, at room temperature. The protein solutions were centrifuged for 10′ at 16,000*g and diluted in coat buffer. Coat controls were performed with anti-glycated protein antibody, anti-albumin antibody, anti-Hb antibody. The alkaline phosphatase-conjugated anti-human Ig antibodies were controlled by coating the IgIV's and overlaying them the secondary antibodies. After coating the plates were washed twice with 50 mM Tris-HCl pH 7.3, 150 mM NaCl, 0.1% v/v Tween20, and blocked with 175 μl/well Blocking reagent (Roche Diagnostics, Almere, The Netherlands; catalogue number 11112589001), for 1 h at room temperature, with motion. Plates were washed twice and incubated in triplicate with indicated antibodies dilution series, plasma dilution series or controls, including binding buffer only, in the absence or presence of putative inhibitors, in binding buffer; PBS/0.1% v/v Tween20, at 50 μl/well, for 1 h at room temperature, with constant motion. After four wash cycles, secondary antibodies were added to the wells, 50 μl/well, for 45′ at room temperature, with motion. RAMPO and SWARPO were used at 2000 times dilution, goat anti-human IgG antibodies were diluted 3000 times, goat anti-human IgM antibodies were diluted 1000 times. After 5 washes with wash buffer followed by two washes with PBS, binding of antibodies was assessed. […] After 5′ absorbance was read at 405 nm. […] After 5′ absorbance was read at 490 nm. […] Triplicates were averaged and standard deviations calculated. […]

tPA = tPA (Homo sapiens, UniProt P00750); test: tPA serine protease activity with OVA heated in the presence of compounds (substrate S-2765); format: biochemical; parameters: purchased Boehringer Ingelheim Actilyse; conditions: OVA heated with 1 mg/ml compound, 80-, 160- or 320-fold diluted, 100 nM tPA
Chain of tPA (P00750 36-562): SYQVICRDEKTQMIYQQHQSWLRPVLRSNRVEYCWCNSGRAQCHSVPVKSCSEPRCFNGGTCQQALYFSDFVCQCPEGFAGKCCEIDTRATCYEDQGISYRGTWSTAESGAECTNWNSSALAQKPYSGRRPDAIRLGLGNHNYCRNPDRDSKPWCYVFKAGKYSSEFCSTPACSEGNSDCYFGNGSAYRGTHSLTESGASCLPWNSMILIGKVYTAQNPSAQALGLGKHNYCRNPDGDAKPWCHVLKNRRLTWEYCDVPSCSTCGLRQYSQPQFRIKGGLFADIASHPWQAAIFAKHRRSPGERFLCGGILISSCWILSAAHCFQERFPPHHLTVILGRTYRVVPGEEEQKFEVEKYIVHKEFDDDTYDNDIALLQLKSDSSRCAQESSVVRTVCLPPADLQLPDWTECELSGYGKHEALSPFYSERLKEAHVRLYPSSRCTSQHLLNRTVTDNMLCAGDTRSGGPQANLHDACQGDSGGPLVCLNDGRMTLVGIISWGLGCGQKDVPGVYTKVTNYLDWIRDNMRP
Experimental: For this purpose, the influence of the compounds on heat-denaturation of OVA was analyzed (see above: Thioflavin T fluorescence measurements). Heated OVA at 1 mg/ml in PBS in the presence or absence of 1 mg/ml of the twelve compounds listed in Table 7 in PBS/DMSO (final DMSO concentration 1%) was used 80-fold or 160-fold or 320-fold diluted (final heated OVA concentration and compound concentration was 12.5 or 6.3 or 3.1 μg/ml; final DMSO concentration was 0.013% and 0.006% and 0.003%).

ovalbumin = molecular target: T2, ovalbumin (Gallus gallus, UniProt P01012); test: Transmission electron microscopy of ovalbumin heated in the presence of small compounds; parameters: species or system chicken; conditions: 1 mg/ml ovalbumin heated with 1 mg/ml compound
T2 construct: purchased Sigma A5503
T2 sequence (P01012 1-386): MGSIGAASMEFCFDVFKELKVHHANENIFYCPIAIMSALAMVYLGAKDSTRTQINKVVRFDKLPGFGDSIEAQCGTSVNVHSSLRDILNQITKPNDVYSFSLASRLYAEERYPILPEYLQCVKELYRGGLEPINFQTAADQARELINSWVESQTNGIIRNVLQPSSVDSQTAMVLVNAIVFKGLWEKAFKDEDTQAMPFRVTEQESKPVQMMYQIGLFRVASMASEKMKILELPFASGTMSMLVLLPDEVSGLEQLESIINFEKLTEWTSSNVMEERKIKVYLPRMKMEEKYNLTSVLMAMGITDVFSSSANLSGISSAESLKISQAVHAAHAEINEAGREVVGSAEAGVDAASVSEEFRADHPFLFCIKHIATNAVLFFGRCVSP
Experimental: For TEM analyses grids were prepared according to standard procedures. Ovalbumin samples at 1 mg/ml were applied to 100-mesh copper grids with carbon coated Formvar (Merck, Germany), and subsequently washed with PBS and H2O. Grids were applied to droplets of 2% (m/v) methylcellulose with 0.4% (m/v) uranylacetate pH 4. After a 2-minutes incubation grids were dried on a filter. Images were recorded at 80 kV, at suitable magnifications on a JEM-1200EX electron microscope (JEOL, Japan).

tPA/plasminogen [2] = molecular target: T3, tPA/plasminogen (Homo sapiens, UniProt P00750); test: tPA/plasminogen activation by pre-formed misfolded OVA in the presence of compounds; format: biochemical; conditions: 80-fold or 160-fold diluted compound and misfolded OVA stocks of 1 mg/ml
T3 construct: purchased Boehringer Ingelheim Actilyse
T3 sequence (P00750 36-562): as the sequence (P00750 36-562) above
Experimental: […] Negative control was buffer without OVA. […] In addition, it was assessed whether the compounds interfere with absorbance readings at 405 nm, with converted chromogenic substrate. […] The yellow solution is divided over wells of an ELISA plate. […] Signals are compared and related to the control.

Hb-AGE [3] = molecular target: T4, Hb-AGE (Homo sapiens, UniProt P68871+P69905); test: ELISA binding of tPA to immobilized Hb-AGE after pre-incubation with compounds; conditions: Hb-AGE first overlayed with compound (concentration series), then tPA
T4 construct: purchased Sigma-Aldrich H7379
T4 sequence (P69905 2-142 limits assumed): as the sequence (P69905 2-142 limits assumed) above
T4 sequence (P68871 2-147 limits assumed): as the sequence (P68871 2-147 limits assumed) above
Experimental: Compounds were now diluted 10× in PBS/0.1% Tween20 (500 μg/ml compound). […] With the selection, similar binding assays are performed with misfolded OVA and Aβ. Finally, concentration series of the selected compounds are used in the binding studies.

Aβ = molecular target: T5, Aβ (Homo sapiens, UniProt P05067, E693Q); test: Binding of Aβ from solution to immobilized small compounds; conditions: coat 100 μg/ml
T5 construct: Lyophilized human amyloid-β(1-40) with E22Q mutation ‘Dutch type’; purchased Peptide facility, Dutch Cancer Institute, Amsterdam; host or cells: synthetic peptide
Experimental: (§1) To test the ability of the twelve selected compounds (see Table 7) to bind to misfolded proteins, […] Greiner Microlon high binding plates, Nunc amino Immobilizer plates and Nunc Maxisorp plates. Compounds were coated in 100 mM NaHCO3 pH 9.6, 50 μl/well, 1 h at room temperature with agitation. As a control, wells were coated with buffer only. After blocking of the plates, wells were overlayed with solutions of 0.1/1/10 μg/ml Hb-AGE or 10/100 μg/ml Aβ, in binding buffer (PBS/0.1% Tween20). After washing, binding of Hb-AGE was assessed by overlaying wells with 1 μg/ml hybridoma antibody 4B5, which binds to glycations(^2), followed by RAMPO. Binding of Aβ was visualized using 500× diluted anti-Aβ antibodies (mouse antibody beta-amyloid Clone 6F/3D #M0872, lot 00003503, DAKOCytomation; β-amyloid (H-43) SC-9129, 200 μg/ml rabbit polyclonal IgG, Santa Cruz Biotechnology) and RAMPO/SWARPO in a 1:1 ratio. Finally, wells were overlayed with OPD/H2O2 solution, and H2SO4, before absorbance readings at 490 nm.

[4] = test system: misfolded proteins (Hb-AGE, Aβ); test: Binding of misfolded proteins from solution to immobilized small compounds (overall); conditions: compounds coated on ELISA plates, Hb-AGE or Aβ in solution
Experimental: To test the ability of the twelve selected compounds (see Table 7) to bind to misfolded proteins, the compounds were immobilized at 10/100/1000 μg/ml in the wells of 96-wells Greiner Microlon high binding plates, Nunc amino Immobilizer plates and Nunc Maxisorp plates. Compounds were coated in 100 mM NaHCO3 pH 9.6, 50 μl/well, 1 h at room temperature with agitation. As a control, wells were coated with buffer only. After blocking of the plates, wells were overlayed with solutions of 0.1/1/10 μg/ml Hb-AGE or 10/100 μg/ml Aβ, in binding buffer (PBS/0.1% Tween20). After washing, binding of Hb-AGE was assessed by overlaying wells with 1 μg/ml hybridoma antibody 4B5, which binds to glycations(^2), followed by RAMPO. Binding of Aβ was visualized using 500× diluted anti-Aβ antibodies (mouse antibody beta-amyloid Clone 6F/3D #M0872, lot 00003503, DAKOCytomation; β-amyloid (H-43) SC-9129, 200 μg/ml rabbit polyclonal IgG, Santa Cruz Biotechnology) and RAMPO/SWARPO in a 1:1 ratio. Finally, wells were overlayed with OPD/H2O2 solution, and H2SO4, before absorbance readings at 490 nm.

heat-denatured ovalbumin = molecular target: T6, heat-denatured ovalbumin (Gallus gallus, UniProt P01012); test: Thioflavin T fluorescence of ovalbumin and small compounds; parameters: species or system chicken; conditions: 1 mg/ml compound, 1 mg/ml OVA
T6 construct: purchased Sigma A5503
T6 sequence (P01012 1-386): T2 sequence (P01012 1-386)
Experimental: To establish the enhancement of Thioflavin T fluorescence by ovalbumin preparations, 90 μl of 25 μM ThT-solution in 50 mM Glycine buffer (pH 9.0) was added to 10 μl sample in duplicate wells of black 96-wells plates. Heat-denatured ovalbumin at 1 mg/ml in PBS with no addition, DMSO at a final concentration of 1% v/v, or 1 mg/ml of the compounds listed in Table 7, was used. Compound stocks are 100 mg/ml in DMSO. In addition, ovalbumin at 1 mg/ml with the same additions was first heat denatured and subsequently used in the fluorescence assay. Heat denaturation was according to the protocol given above. Fluorescence of duplicates was measured on a Thermo Fluoroskan Ascent 2.5, at 435 nm excitation and 485 nm emission wavelengths.

Hb-AGE [5] = molecular target: T4, Hb-AGE; test: Binding of Hb-AGE from solution to immobilized small compounds; conditions: coat 100 μg/ml
Experimental: as §1

tPA/plasminogen [6] = molecular target: T3, tPA/plasminogen; test: tPA/plasminogen activation by OVA heated in the presence of compounds (substrate PNAPEP1751); format: biochemical; conditions: 25 μg/ml OVA, 25 μg/ml compound, […] DMSO
Experimental: Heated OVA, either in PBS/1% DMSO (positive control), or in the same buffer in the presence of 1 mg/ml of the compounds, was used 40-fold diluted in the assay. Negative control was buffer without OVA. […] In addition, it was assessed whether the compounds interfere with absorbance readings at 405 nm, with converted chromogenic substrate. […] The yellow solution is divided over wells of an ELISA plate. […] Signals are compared and related to the control.

Compound | influence on binding of IgIV to immobilized Hb-AGE [1] | influence on tPA protease activity of OVA heated in the presence of compound (tPA) | appearance of ovalbumin heated in the presence of compound on TEM image (ovalbumin) | influence on tPA/plasminogen activation by pre-formed misfolded OVA (tPA/plasminogen [2]) | influence on tPA binding to immobilized Hb-AGE (Hb-AGE [3]) | Signal (a.u.) (Aβ; Nunc Maxisorp, Aβ 100 μg/ml) | Signal (a.u.) (Aβ; Nunc amino Immobilizer, Aβ 10 μg/ml) | Signal (a.u.) (Aβ; Nunc amino Immobilizer, Aβ 100 μg/ml) | capture of misfolded protein from solution by immobilized compound [4] | influence on Thioflavin T fluorescence with misfolded OVA (heat-denatured ovalbumin) | Signal (a.u.) (Hb-AGE [5]; Nunc Maxisorp, Hb-AGE 10 μg/ml) | Signal (a.u.) (Hb-AGE [5]; Nunc amino Immobilizer, Hb-AGE 1 μg/ml) | influence on tPA/plasminogen activation by OVA pre-heated in the presence of compound (tPA/plasminogen [6])
Thioflavin S | enhance the binding of IgIV | – | – | – | – | – | – | – | – | – | – | – | –
Bucharaine [compound 8] | – | induces further stimulation of tPA by OVA; also recorded: induce increased tPA activity when combined with ovalbumin before heat-denaturation | no large OVA aggregates are seen | potent inhibitors of misfolded OVA-triggered plasmin generation; also recorded: fully abolish plasmin activity | – | – | – | – | – | – | – | – | –
Cc1c(C(=O)O)c(O)cc2c1C(=O)c1c(O)c([C@H]3O[C@H](CO)[C@@H](O)[C@H](O)[C@H]3O)c(O)c(O)c1C2=O [compound 19] | – | – | Background as in Control, but less aggregated. Also | Delayed tPA/plasminogen activation by misfolded OVA | Stimulated tPA binding to immobilized misfolded protein (Hb- | 0.08 | 0.03 | 0.04 | Capture of misfolded protein from solution | Inhibition on Thioflavin T fluorescence with misfolded OVA | 0.16 | 0.42 | Inhibition of tPA/plasminogen activation by OVA pre-heated
